In paper PMC7284870, “Antimicrobial Peptides from Rat-Tailed Maggots of the Drone Fly Eristalis tenax Show Potent Activity against Multidrug-Resistant Gram-Negative Bacteria” (Microorganisms, 2020):
≈ marks a conversion by molar mass, not a printed value. Where “and” joins values, the source holds several entries; their conditions need not be identical. Equal entries are not always repeated. Where two headings read alike, the source gives them in different places. No end group written: not given here.

Assays:
[1] = Metabolic stability in human hepatocytes; format: in vitro ADME; details: cryopreserved human hepatocytes in suspension, 0.5 × 10^6 cells/mL, 1 µM peptide
Procedure: The metabolic stability of the E. tenax peptides was assessed by determining the intrinsic clearance while using cryopreserved human hepatocytes in suspension culture in a volume of 60 µL with a seeding densitiy of 0.5 × 10^6 hepatocytes/mL. The peptides were added at a concentration of 1 µM (4.14, 4.28, and 6.65 µg/mL for EtCec1-a, EtCec2-a, and EtDip, respectively). Scaled hepatic clearance for human was calculated based on a weight of 25.71 g liver/kg and a hepatocellularity of 99 × 10^6 cells/g liver.

[2] = test system: Enterobacter cloacae RKI 146/09; test: microbe, parasite or virus in culture; format: cell-based
Procedure: (§1) The strains that were used in this study (Table 2 and Table S1) were cultivated at 37 °C in cation-adjusted Mueller–Hinton broth (CAMB) in Erlenmeyer flasks, or on the same medium with agar in Petri dishes. Exceptionally, Mycobacterium smegmatis was cultivated at 37 °C in brain heart infusion (BHI) medium that was supplemented with 1% Tween-80 in Erlenmeyer flasks, or on the same medium lacking detergent but with agar in Petri dishes. Strains listed with Robert Koch Institute (RKI) strain numbers are clinical isolates from the RKI strain collection originating from hospitalized patients in Germany. The remaining strains originated from the Sanofi strain collection and they were originally purchased from the American Type Culture Collection or the German Collection of Microorganisms and Cell Cultures. Meropenem/colistin-resistant strains were maintained, as described above, with the appropriate antibiotic added at levels below the minimal inhibitory concentration (MIC).
(§2) The MIC values were determined in 384-well microtiter plates with an assay volume of 20 µL. Immediately before each assay, the cultures of test organisms (bacteria grown for 18 h, Candida albicans and M. smegmatis grown for 48 h) were diluted with the appropriate medium to a density of 1 × 10^6 cells/mL (C. albicans), 1 × 10^5 cells/mL (M. smegmatis) or 5 × 10^5 cells per mL (other species). […] We transferred 2-µL aliquots from this dilution series to new 384-well microtiter plates while using a CyBio-Well 384-channel automated pipettor (Analytic Jena, Jena, Germany) and added 18 µL of the diluted suspension of each test species using a Viafill reagent dispenser (Integra), thus reducing the final peptide concentration 10-fold to the range 1024–0.03125 µg/mL. […] The growth of M. smegmatis was measured using the BacTiter-Glo luminescence test system (Promega, Madison, WI, USA). The growth of the other species was determined by visual inspection of the microtiter plate and turbidimetry based on the optical density at 600 nm (OD600). The MIC was defined as the peptide concentration at which no bacterial growth was observed. We supplemented the test medium with either 150 mM NaCl or 1.25 mM CaCl2 to represent monovalent and divalent cations to simulate physiological conditions.

K. pneumoniae RKI 93/10 = test: microbe, parasite or virus in culture; format: cell-based, Klebsiella pneumoniae
Procedure: as §1, §2

E. coli ATCC 25922 = test system: E. coli ATCC 25922
Outline: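 MIC was determined by broth microdilution in cation-adjusted Mueller–Hinton broth at 5 × 10^5 cells/mL. Peptides were tested at 1024–0.03125 µg/mL final, with 18 h incubation at 37 °C with shaking. Growth was scored visually and by OD600. Medium was supplemented with 150 mM NaCl or 1.25 mM CaCl2.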

E. coli RKI 131/08 = test: microbe, parasite or virus in culture; format: cell-based, Escherichia coli
Procedure: as §1, §2

S. aureus ATCC 33592 = format: cell-based, Staphylococcus aureus
Outline: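 Broth microdilution in cation-adjusted Mueller–Hinton broth, inoculum 5 × 10^5 cells/mL from 18 h cultures; final peptide range 1024–0.03125 µg/mL, medium supplemented with 150 mM NaCl or 1.25 mM CaCl2. Growth scored visually and by OD600; MIC = lowest concentration without growth.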

Plasma stability = format: in vitro ADME; details: 37 °C, LC-MS, triplicate; for remaining at 24 h, 5 µM: after 24 h, read-out: peptide remaining in plasma; for hydrolysis in plasma: 5 µM
Procedure: EtCec1-a, EtCec2-a, and EtDip were dissolved as 1 mM stock solutions in sterile deionized water and then incubated in 500 µL plasma from different species (human, mouse and rat) to a final concentration of 5 µM (20.7, 21.4, and 33.3 µg/mL for EtCec1-a, EtCec2-a, and EtDip, respectively) at 37 °C. At different time points (0, 1, 4, and 24 h), 100-µL samples were transferred to 500 µL ethanol containing 0.5% (v/v) NH3, and the plasma proteins were precipitated by centrifugation for 20 min. at 1735× g. EtCec1-a, EtCec2-a, and EtDip (10 µL injection volume) were analyzed in triplicate by LC-MS, and their stability was evaluated by comparing samples of with plasma incubated timepoints (t1, t4, t24) to untreated samples (t0). The peptides were separated on an AERIS Peptide 3.6-µm XB-C18 50 × 2.1 mm column (Phenomenex, Torrance, CA, USA) with an ascending acetonitrile gradient in water (that was supplemented with 0.1% formic acid) at a flow rate of 500 µL/min.

[3] = CAMB + 0.075 µg/mL colistin (Col), n=3
[4] = CAMB adjusted to 150 mM NaCl, n=3
[5] = CAMB + A000173039A [0.25 µg/mL]
[6] = CAMB + A000499933A [0.0625 µg/mL]
[7] = CAMB + A000500059A [0.0625 µg/mL]
[8] = CAMB + A000500146A [0.0625 µg/mL]
[9] = CAMB + Colistin E1 [0.016 µg/mL]
[10] = CAMB + Colistin E2 [0.016 µg/mL]

Compound | half-life [1] | half-life at 1 µM [1] [min] | MIC [2, 3] [µg/mL] | MIC (K. pneumoniae RKI 93/10; [3]) [µg/mL] | MIC (E. coli ATCC 25922; [3]) [µg/mL] | MIC (E. coli ATCC 25922; CAMB + A000160918 [4 µg/mL]) [µg/mL] | MIC (E. coli ATCC 25922; CAMB + A000161246 [4 µg/mL]) [µg/mL] | MIC (E. coli ATCC 25922; CAMB + A000173031A [4 µg/mL]) [µg/mL] | MIC (E. coli ATCC 25922; CAMB + A000173033A [4 µg/mL]) [µg/mL] | MIC (E. coli ATCC 25922; [5]) [µg/mL] | MIC (E. coli ATCC 25922; CAMB + A000173380A [4 µg/mL]) [µg/mL] | MIC (E. coli ATCC 25922; CAMB + A000498432A [4 µg/mL]) [µg/mL] | MIC (E. coli ATCC 25922; [6]) [µg/mL] | MIC (E. coli ATCC 25922; [7]) [µg/mL] | MIC (E. coli ATCC 25922; [8]) [µg/mL] | MIC (E. coli ATCC 25922; CAMB + A000501181A [4 µg/mL]) [µg/mL] | MIC (E. coli ATCC 25922; [9]) [µg/mL] | MIC (E. coli ATCC 25922; [10]) [µg/mL] | MIC (E. coli ATCC 25922; CAMB + PMB [0.016 µg/mL]) [µg/mL] | MIC (E. coli ATCC 25922; CAMB + PMBN [4 µg/mL]) [µg/mL] | also measured
GWLRDFGKRIERTGQNIRDATIQTIGIAQEAANVAATLK-NH2 [EtCec2-NH2] | > 200 min | 206 | 32 | 8 | 4 | >256 | >256 | >256 | >256 | >256 | >256 | >256 | 128 | 256 | 4 | 256 | 4 | 2 | 2 | >256 | MIC [2, 4]: 64 µg/mL; MIC ([2]; Table 4, CAMB, n=3): 32 µg/mL; MIC (K. pneumoniae RKI 93/10; [4]): 256 µg/mL; MIC (K. pneumoniae RKI 93/10; Table 4, CAMB, n=3): 64 µg/mL; MIC (E. coli ATCC 25922; [4]): 32 µg/mL; MIC (E. coli ATCC 25922; CAMB, 18 h, 37 °C, n = 4): 32 µg/mL; MIC (E. coli ATCC 25922; Table 4, CAMB, n=3): 32 µg/mL; MIC (E. coli ATCC 25922; Table 6, CAMB): 32 µg/mL; MIC (E. coli RKI 131/08; [3]): 2 µg/mL; MIC (E. coli RKI 131/08; [4]): 16 µg/mL; MIC (E. coli RKI 131/08; Table 4, CAMB, n=3): 16 µg/mL; MIC (S. aureus ATCC 33592; CAMB, 18 h, 37 °C, n = 4): >1024 µg/mL; remaining at 24 h, 5 µM (Plasma stability; human plasma): 22%; hydrolysis in plasma (Plasma stability; mouse plasma, within 24 h): completely hydrolyzed; hydrolysis in plasma (Plasma stability; rat plasma, within 24 h): completely hydrolyzed
C[C@@H](O)[C@H]1C(=O)N2C(C(=O)O)=C(S[C@@H]3CN[C@H](C(=O)N(C)C)C3)[C@H](C)[C@H]12 [MEM, meropenem] | – | – | – | – | – | – | – | – | – | – | – | – | – | – | – | – | – | – | – | – | MIC ([2]; Enterobacter cloacae, RKI146/09): 16 µg/mL (≈ 41.7 µM); MIC (K. pneumoniae RKI 93/10; Klebsiella pneumoniae, RKI93/10): 64 µg/mL (≈ 167 µM); MIC (E. coli RKI 131/08; Escherichia coli, RKI131/08): 32 µg/mL (≈ 83.4 µM)
QFNMQGGGSPRQGFDVNANARFPIWQSQNARNSVHGTASYAQHLGGPYGNSRPNFGGGLQFT [EtDip, diptericin-like peptide of Eristalis tenax] | 345 min and > 200 min | – | >1024 | >1024 | 4 | >256 | >256 | >256 | >256 | >256 | >256 | >256 | >256 | >256 | 4 | >256 | >256 | 2 | 2 | >256 | MIC ([2]; Table 5, CAMB, n=3): >1024 µg/mL; MIC (K. pneumoniae RKI 93/10; Table 5, CAMB, n=3): >1024 µg/mL; MIC (E. coli ATCC 25922; CAMB, 18 h, 37 °C, n = 4): >1024 µg/mL; MIC (E. coli ATCC 25922; Table 5, CAMB, n=3): >1024 µg/mL; MIC (E. coli ATCC 25922; Table 6, CAMB): >256 µg/mL; MIC (E. coli RKI 131/08; [3]): 4 µg/mL; MIC (E. coli RKI 131/08; Table 5, CAMB, n=3): >1024 µg/mL; MIC (S. aureus ATCC 33592; CAMB, 18 h, 37 °C, n = 4): >1024 µg/mL; hydrolysis in plasma (Plasma stability; human plasma, after 1 h): ≥ 83%; hydrolysis in plasma (Plasma stability; mouse plasma, after 1 h): ≥ 83%; hydrolysis in plasma (Plasma stability; rat plasma, after 1 h): ≥ 83%
GFLKKIGKKLEGAVQRTRDATIQTIAVAQAAANVAATAKQ-NH2 [EtCec1-NH2] | > 200 min | 428 | – | – | – | – | – | – | – | – | – | – | – | – | – | – | – | – | – | – | MIC (K. pneumoniae RKI 93/10; RKI 93/10, 18 h): 8 µg/mL; MIC (E. coli ATCC 25922; ATCC 25922, 18 h): 8 µg/mL; MIC (E. coli RKI 131/08; RKI 131/08, 18 h): 4 µg/mL; MIC (S. aureus ATCC 33592; ATCC 33592, 18 h): >1024 µg/mL; remaining at 24 h, 5 µM (Plasma stability; human plasma): 48%; hydrolysis in plasma (Plasma stability; mouse plasma, within 24 h): completely hydrolyzed; hydrolysis in plasma (Plasma stability; rat plasma, within 24 h): completely hydrolyzed
